In patent publication US5436246A, “Serotonin receptor agents” (priority 1993, dated 1995):
Counter-ions that a name gives are not always drawn. Like-named read-outs stand apart in the source and are kept apart here.

What was measured:
[1] = target: T1, 5HT1D receptor (Bos taurus, UniProt F1MGM3); assay: 5HT1D receptor binding affinity (procedure of Peroutka et al.)
T1 construct: from tissue
Protocol: The compounds affinity for the 5HT1D site was determined by the binding procedure of Peroutka et al as reported in European Journal of Pharmacology, Vol. 163 at pages 133-166 (1989). […] Where multiple determinations of the binding affinity have been performed, the average is given followed by the number of determinations in parentheses.

[2] = target: T2, 5HT1A receptor (Rattus norvegicus, UniProt P19327); assay: 5HT1A receptor binding affinity (procedure of Gozlan et al.)
T2 sequence (P19327 1-422): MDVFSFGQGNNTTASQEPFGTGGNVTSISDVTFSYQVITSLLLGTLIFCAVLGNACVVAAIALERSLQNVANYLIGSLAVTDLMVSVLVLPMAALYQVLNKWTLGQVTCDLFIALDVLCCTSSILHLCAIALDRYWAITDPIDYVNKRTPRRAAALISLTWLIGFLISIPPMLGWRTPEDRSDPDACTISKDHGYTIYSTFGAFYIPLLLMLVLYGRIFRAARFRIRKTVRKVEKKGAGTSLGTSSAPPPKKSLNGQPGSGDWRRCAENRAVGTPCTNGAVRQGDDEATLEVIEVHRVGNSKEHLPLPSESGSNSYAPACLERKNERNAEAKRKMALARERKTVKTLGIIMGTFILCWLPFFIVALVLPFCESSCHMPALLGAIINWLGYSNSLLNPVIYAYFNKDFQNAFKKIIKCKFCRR
Protocol: In the following examples, the compounds binding affinity for both the 5HT1A receptor and 5HT1D receptors is reported. The compounds affinity for the 5HT1D site was determined by the binding procedure of Peroutka et al as reported in European Journal of Pharmacology, Vol. 163 at pages 133-166 (1989). The compounds affinity for the 5HT1A receptor was determined by the procedure of Gozlan et al., as reported in Nature, Volume 305, at pages 140-142 (1983). Where multiple determinations of the binding affinity have been performed, the average is given followed by the number of determinations in parentheses. Also, the PA2 value for the saphenous vein preparation as described in this application is given, followed by the intrinsic (agonist) activity in parentheses, expressed as a percentage. [drawing 10] […]

[3] = average of multiple determinations where number in parentheses is given, read-out: IC50 (5HT1D Binding Affinity)
[4] = average of multiple determinations where number in parentheses is given, read-out: IC50 (5HT1A Binding Affinity)

T1 sequence (F1MGM3 1-403): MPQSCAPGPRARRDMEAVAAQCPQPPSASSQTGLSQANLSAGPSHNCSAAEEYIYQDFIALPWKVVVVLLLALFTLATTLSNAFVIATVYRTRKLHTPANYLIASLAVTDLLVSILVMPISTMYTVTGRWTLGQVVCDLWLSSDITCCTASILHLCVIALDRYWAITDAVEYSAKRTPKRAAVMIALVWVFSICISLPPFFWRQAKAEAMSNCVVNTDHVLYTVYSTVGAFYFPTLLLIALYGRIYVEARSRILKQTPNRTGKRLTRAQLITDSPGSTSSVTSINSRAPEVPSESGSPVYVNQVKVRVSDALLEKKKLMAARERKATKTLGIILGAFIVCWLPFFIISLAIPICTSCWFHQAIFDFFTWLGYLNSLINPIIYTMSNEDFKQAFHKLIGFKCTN

`Cc1ccc(CCN2CCN(c3cccc4sc(C#N)cc34)CC2)cc1` [Example 28, 4-[4-[2-(4-methylphenyl)ethyl]-1-piperazinyl]-benzo[b]thiophene-2-nitrile monohydrochloride] showed an IC50 [1] of 56 nM and an IC50 [2] of 4 nM.

`CNC(=O)c1cc2c(N3CCNCC3)cccc2s1` [Example 49, 4-(1-piperazinyl)benzol[b]-thiophene-2-(N-methyl)carboxamide dihydrochloride hydrate] gave an IC50 [1] of 8.4 nM.

With `NC(=O)c1cc2c(N3CCN(CCc4ccc(F)cc4)CC3)cccc2s1` [Example 25, 4-[4-[2-(4-fluorophenyl)ethyl]-piperazinyl]-benzo[b]-thiophene-2-carboxamide monohydrochloride] the IC50 [1] was 6 nM and the IC50 [2] was 0.8 nM.

In the case of `CC(O)c1cc2c(N3CCN(CCc4ccccc4)CC3)cccc2s1` (centres unmarked) [Example 43, 1-[4-(4-phenethyl-piperazin-1-yl)-benzo[b]thiophen-2-yl]ethanol hydrochloride], the IC50 [1] is reported as 3 nM and the IC50 [2] is reported as 0.5 nM.

`CCCN1CCN(c2cccc3sc(CO)cc23)CC1` [Example 35, 4-[(4-propyl)-1-piperazinyl]benzo[b]thiophene-2-methanol hydrochloride] showed an IC50 [1, 3] of 66 nM and an IC50 [2, 4] of 34 nM.

For `Cc1c(CO)sc2cccc(N3CCN(CCc4ccccc4)CC3)c12` [Example 33, 4-[4-(2,phenylethyl)-1-piperazinyl]-benzo[b]-thiophene-3-methyl-2-methanol monhydrochloride 0.5 hydrate], the IC50 [1] was 31 nM and the IC50 [2] was 9 nM.

`OCc1cc2c(N3CCN(CCc4ccc(F)cc4)CC3)cccc2s1` [Example 23, 4-[4-[2-(4-fluorophenyl)ethyl]-1-piperazinyl]-benzo[b]thiophene-2-methanolmonohydrochloride] gave an IC50 [1] of 3 nM and an IC50 [2] of 3 nM.

`CCOC(=O)c1cc2c(N3CCNCC3)cccc2s1` [Example 5, ethyl 4-(1-piperazinyl)-benzo[b]thiophene-2-carboxylate monohydrochloride] gave an IC50 [1] of 47 nM and an IC50 [2] of 89 nM.

For `N#Cc1cc2c(N3CCN(Cc4ccccc4)CC3)cccc2s1` [Example 3, 4-[4-(phenylmethyl)-1-piperazinyl]-benzo[b]thiophene-2-nitrile monohydrochloride], the IC50 [1, 3] was > 1000 nM and the IC50 [2, 4] was 180 nM.

`COCc1cc2c(N3CCNCC3)cccc2s1` [Example 45, 4-(1-piperazinyl)-benzo[b]thiophene-2-methoxymethyl hydrochloride hemihydrate] gave an IC50 [1] of 4 nM.

In the case of `O=[N+]([O-])c1ccc(CCN2CCN(c3cccc4sc(CO)cc34)CC2)cc1` [Example 50, 4-[4-[2-(4-nitrophenyl)ethyl]-1-piperazinyl]-benzo[b]thiophene-2-methanol hydrochloride], the IC50 [1, 3] is reported as 6 nM and the IC50 [2, 4] is reported as 1 nM.

`COc1ccc(CCN2CCN(c3cccc4sc(CO)cc34)CC2)cc1` [Example 31, 4-[4-[2-(4-methoxyphenyl)ethyl]-1-piperazinyl]-benzo[b]thiophene-2-methanol monohydrochloride] was tested, and the IC50 [1] was 2 nM and the IC50 [2] was 1 nM.

`CCOC(=O)c1cc2c(N3CCN(Cc4ccccc4)CC3)cccc2s1` [Example 1, ethyl-4-[4-(phenylmethyl)-1-piperazinyl]benzo[b]thiophene-2-carboxylate monohydrochloride] was tested, and the IC50 [1, 3] was > 1000 nM and the IC50 [2, 4] was > 1000 nM.

For `N#Cc1cc2c(N3CCN(CCCc4ccccc4)CC3)cccc2s1` [Example 16, 4-[4-(3-phenylpropyl)-1-piperazinyl]-benzo[b]thiophene-2-nitrile monohydrochloride], the IC50 [1, 3] was 173 nM and the IC50 [2, 4] was 21 nM.

`Cc1ccc(CCN2CCN(c3cccc4sc(CO)cc34)CC2)cc1` [Example 27, 4-[4-[2-(4-methylphenyl)-ethyl]-1-piperazinyl]-benzo[b]thiophene-2-methanol monohydrochloride] was tested, and the IC50 [1] was 1 nM and the IC50 [2] was 3 nM.

With `CN1CCN(c2cccc3sc(CO)cc23)CC1` [Example 39, 4-[4-methyl-1-piperazinyl]-benzo[b]thiophene-2-methanol hydrochloride] the IC50 [1] was 16 nM.
